Laboratory results published in patent US7612061B2, “Piperazine compounds” (Les Laboratoires Servier, priority 2005, dated 2009).
Where a name gives a salt, the structure may show the parent alone.

Key:
[1] = molecular target: T1, serotonin (5-HTT) reuptake site (Rattus norvegicus, UniProt P31652); experiment: Affinity for serotonin reuptake sites in the rat ([3H]-citalopram competition); type: binding; conditions: rat frontal cortex membranes, 0.7 nM [3H]-citalopram, 2 hours at 25° C.; pKi=-log Ki (Cheng-Prusoff); read-out: pKi r5-HTT (converted)
T1 construct: on rat frontal cortex membranes; from tissue; host or cells: rat frontal cortex membranes
Method: The affinity of the compounds for the serotonin (5-HTT) reuptake site is evaluated by competition experiments with [^3H]-citalopram on rat frontal cortex membranes. The cortices are homogenised using a Polytron in 40 volumes (weight/volume) of cold Tris-HCl (50 mM, pH 7.4) incubation buffer containing 120 mM NaCl and 5 mM KCl and are then centrifuged for a first time. The sediment is resuspended in the same buffer, incubated for 10 minutes at 37° C. and then re-centrifuged. The membranes are washed a further two times and the sediment is then resuspended in an appropriate volume of incubation buffer. The membranes are then incubated for 2 hours at 25° C. with the compound under test in the presence of 0.7 nM [^3H]-citalopram. Non-specific binding is determined with 10 μM fluoxetine. At the end of the incubation period, the samples are filtered through Unifilter GF/B type filters pretreated with PEI (0.5%) and washed several times with the incubation buffer. The radioactivity retained on the filters is counted after addition of scintillation liquid, with the aid of a scintillation counter. The isotherms obtained are analysed by non-linear regression to determine the IC50 values, which are converted into Ki using the Cheng-Prusoff equation: Ki=IC50/(1+L/kD) wherein L represents the concentration of radioligand and kD is the dissociation constant of [^3H]-citalopram on the serotonin reuptake site (0.7 nM). The results are expressed as pKi=−log Ki.

human NK1 receptors = molecular target: T2, human NK1 receptors (Homo sapiens, UniProt P25103); experiment: hNK1 binding ([3H]-Substance P competition on IM9 human lymphoblast cells); conditions: IM9 human lymphoblast cells endogenously expressing NK1 receptors, 1.5 nM [3H]-Substance P, 90 minutes at ambient temperature; pKi=-log Ki (Cheng-Prusoff)
T2 construct: IM9 human lymphoblast cells endogenously expressing NK1 receptors; endogenous in cells; host or cells: IM9 human lymphoblast cells (whole-cell preparation)
Method: The affinity of compounds of the invention was determined by competition experiments in the presence of [^3H]-Substance P (Sar-9, MetO2-11,2-propyl-3,4-3H). IM9 human lymphoblast cells endogenously expressing NK1 receptors are centrifuged and taken up in the incubation buffer containing 50 mM TRIS, 150 mM NaCl, 4 mM CaCl2, protease inhibitors at 1/100^e (Cocktail SIGMA P8340) and 0.2% BSA. The volume of incubation buffer is determined so as to obtain a concentration of 5×10^6 cells/ml. The cell preparation is then incubated together with 1.5 nM [^3H]-Substance P and the compound under test for 90 minutes at ambient temperature. Non-specific binding is determined in the presence of 1 μM GR 205171.
At the end of the incubation period, the samples are filtered through Unifilter GF/B type filters pretreated with PEI (0.1%) and washed several times with the filtration buffer (50 mM TRIS, 150 mM NaCl, 4 mM CaCl2). The radioactivity retained on the filters is measured by counting after addition of scintillation liquid to the filters. The counts are analysed by non-linear regression, allowing the isotherms to be plotted and the IC50 values to be determined. The latter are then converted into inhibition constants (Ki) by means of the Cheng-Prusoff equation: Ki=IC50/(1+L/KD) wherein L is the concentration of [^3H]-Substance P and KD is the dissociation constant of [^3H]-Substance P for human NK1 receptors (0.53 nM). The results are expressed as pKi(−log Ki).

T2 sequence (P25103 whole entry): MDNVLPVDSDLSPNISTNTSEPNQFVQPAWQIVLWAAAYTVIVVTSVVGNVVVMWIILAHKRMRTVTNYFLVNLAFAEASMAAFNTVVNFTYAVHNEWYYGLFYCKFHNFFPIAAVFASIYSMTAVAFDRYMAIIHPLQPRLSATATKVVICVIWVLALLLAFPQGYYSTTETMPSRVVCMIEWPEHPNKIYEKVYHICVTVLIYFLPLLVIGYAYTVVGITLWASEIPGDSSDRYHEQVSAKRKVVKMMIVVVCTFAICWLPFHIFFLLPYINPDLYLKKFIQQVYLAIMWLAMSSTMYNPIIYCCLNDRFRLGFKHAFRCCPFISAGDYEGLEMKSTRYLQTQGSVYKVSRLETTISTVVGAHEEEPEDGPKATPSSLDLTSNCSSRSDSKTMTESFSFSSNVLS
T1 sequence (P31652 whole entry): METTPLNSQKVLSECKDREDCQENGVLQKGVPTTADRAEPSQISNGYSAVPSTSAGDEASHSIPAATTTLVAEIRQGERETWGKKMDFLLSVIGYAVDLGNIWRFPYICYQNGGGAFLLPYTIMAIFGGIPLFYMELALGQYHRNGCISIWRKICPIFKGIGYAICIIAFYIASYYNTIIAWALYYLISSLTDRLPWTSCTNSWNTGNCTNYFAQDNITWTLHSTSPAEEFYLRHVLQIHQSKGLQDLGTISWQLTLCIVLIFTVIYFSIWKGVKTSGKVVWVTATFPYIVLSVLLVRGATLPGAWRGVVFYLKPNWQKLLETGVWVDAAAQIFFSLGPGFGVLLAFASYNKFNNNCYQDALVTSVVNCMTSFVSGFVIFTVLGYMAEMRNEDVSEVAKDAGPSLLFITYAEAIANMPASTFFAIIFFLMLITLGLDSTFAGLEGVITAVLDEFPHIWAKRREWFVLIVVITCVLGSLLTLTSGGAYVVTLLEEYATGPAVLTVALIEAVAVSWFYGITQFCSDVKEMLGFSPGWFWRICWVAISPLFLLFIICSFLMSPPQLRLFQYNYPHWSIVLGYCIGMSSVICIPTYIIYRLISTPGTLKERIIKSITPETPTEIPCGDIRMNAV

Row | Structure (SMILES) | Ki [1] [nM] | Ki (human NK1 receptors) [nM]
1 | Brc1cc(Br)cc(CO[C@@H]2Cc3ccccc3[C@H]2N2CCNCC2)c1 (racemic) [Example 1, trans-1-{2-[(3,5-Dibromobenzyl)oxy]-2,3-dihydro-1H-inden-1-yl}-piperazine dihydrochloride] | 4.47 | 145
2 | Brc1cc(Br)cc(CO[C@@H]2COc3ccccc3[C@H]2N2CCNCC2)c1 (racemic) [Example 4, trans-1-{3-[(3,5-Dibromobenzyl)oxy]-3,4-dihydro-2H-chromen-4-yl}piperazine dihydrochloride] | 79.4 | 5.62
3 | Brc1cc(Br)cc(CO[C@@H]2CCc3ccccc3[C@H]2N2CCNCC2)c1 (racemic) [Example 15, trans-1-{2-[(3,5-Dibromobenzyl)oxy]-1,2,3,4-tetrahydronaphth-1-yl}piperazine dihydrochloride] | – | 33.1
4 | Brc1cc(Br)cc(CO[C@@H]2CCCc3ccccc3[C@H]2N2CCNCC2)c1 (relative stereo) [Example 7, trans-1-{6-[(3,5-Dibromobenzyl)oxy]-6,7,8,9-tetrahydro-5H-benzo-[7]annulen-5-yl}piperazine dihydrochloride] | – | 7.24
5 | Brc1cc(Br)cc(CO[C@@H]2CCOc3ccccc3[C@H]2N2CCNCC2)c1 (relative stereo) [Example 8, trans-1-{4-[(3,5-Dibromobenzyl)oxy]-2,3,4,5-tetrahydro-1-benzoxepin-5-yl}piperazine dihydrochloride] | – | 28.8
6 | NC1CCN([C@@H]2c3ccccc3OC[C@H]2OCc2cc(Br)cc(Br)c2)CC1 (relative stereo) [Example 9, trans-1-{3-[(3,5-Dibromobenzyl)oxy]-3,4-dihydro-2H-chromen-4-yl}piperidin-4-amine dihydrochloride] | – | 11
7 | COc1ccc2c(c1)CC[C@@H](OCc1cc(Br)cc(Br)c1)[C@@H]2N1CCNCC1 (relative stereo) [Example 13, trans-1-{2-[(3,5-Dibromobenzyl)oxy]-6-methoxy-1,2,3,4-tetrahydro-naphth-1-yl}piperazine dihydrochloride] | – | 251
8 | FC(F)(F)c1cc(CO[C@@H]2Cc3ccccc3[C@H]2N2CCNCC2)cc(C(F)(F)F)c1 (relative stereo) [Example 40, trans-1-(2-{[3,5-Bis(trifluoromethyl)benzyl]oxy}-2,3-dihydro-1H-inden-1-yl)piperazine dihydrochloride] | – | 141
9 | COc1ccc2c(c1)[C@@H](N1CCNCC1)[C@H](OCc1cc(Cl)cc(Cl)c1)C2 (relative stereo) [Example 42, trans-1-{2-[(3,5-Dichlorobenzyl)oxy]-6-methoxy-2,3-dihydro-1H-inden-1-yl}piperazine dihydrochloride] | 19.5 | –
10 | Clc1cc(Cl)cc(CO[C@@H]2COc3ccccc3[C@H]2N2CCNCC2)c1 (relative stereo) [Example 44, trans-1-{3-[(3,5-Dichlorobenzyl)oxy]-3,4-dihydro-2H-chromen-4-yl}-piperazine dihydrochloride] | 49 | –
11 | Fc1cc(Cl)cc(CO[C@@H]2COc3ccccc3[C@H]2N2CCNCC2)c1 (relative stereo) [Example 47, trans-1-{3-(3-Chloro-5-fluorobenzyloxy)-3,4-dihydro-2H-chromen-4-yl}piperazine dihydrochloride] | 35.5 | –
12 | Brc1cc(Br)cc(COC2CCc3ccccc3C2N2CCCNCC2)c1 (single isomer, unassigned; (-)) [Example 19, (−) isomer of trans-1-{2-[(3,5-dibromobenzyl)oxy]-1,2,3,4-tetra-hydronaphth-1-yl}-1,4-diazepane dihydrochloride] | – | 39.8
13 | Brc1cc(Br)cc(CO[C@@H]2Cc3ccccc3[C@@H]2N2CCNCC2)c1 [Example 21, 1-{(1S,2R)-2-[(3,5-Dibromobenzyl)oxy]-2,3-dihydro-1H-inden-1-yl}-piperazine dihydrochloride] | 12.3 | –
14 | Fc1cc(F)cc(CO[C@@H]2Cc3ccccc3[C@@H]2N2CCNCC2)c1 [Example 36, 1-[(1S,2R)-2-[(3,5-Difluorobenzyl)oxy]-2,3-dihydro-1H-inden-1-yl]-piperazine dihydrochloride] | 1.07 | –
15 | Cc1cc(C)cc(CO[C@@H]2Cc3ccccc3[C@@H]2N2CCNCC2)c1 [Example 38, 1-[(1S,2R)-2-[(3,5-Dimethylbenzyl)oxy]-2,3-dihydro-1H-inden-1-yl]-piperazine dihydrochloride] | 1.86 | –
